Source: PMC8359193, “Summary of reference chemicals evaluated by the fish short‐term reproduction assay, OECD TG229, using Japanese Medaka, Oryzias latipes” (Journal of Applied Toxicology, 2021)
Entries after “also recorded” stand apart in the source; their conditions may differ.

Test system: Japanese medaka (Oryzias latipes)
Assay: Fish short-term reproduction assay (FSTRA, OECD TG229), 21-day flow-through exposure
Settings: for GSI Female / HSI Female / Length Female / Weight Female / GSI Male / HSI Male / Length Male / Weight Male: at completion of exposure; for Fertility rate (%) / Mortality (%) Female / Mortality (%) Male / Number of fertilized eggs / Number of total eggs / SSC Female / SSC Male / VTG (ng/mg of liver) Female / VTG (ng/mg of liver) Male: 21 days; for effect on fecundity (number of total eggs), in words: within the test concentrations
Summary of the method: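 Run to OECD TG229: mature NIES-R medaka pairs (3♂/3♀ per vessel, 4 vessels per treatment plus dilution water control) were dosed by continuous flow-through for 21 days. Test concentrations were spaced 2- to 5-fold. Daily spawned eggs were counted under the microscope for fertilized versus unfertilized.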

[1] = female, measured conc. 0.748 mg/L
[2] = female, measured conc. 2.46 mg/L
[3] = female, measured conc. 10.0 mg/L
[4] = male, measured conc. 0.748 mg/L

SMILES: CCCCCCCCCCCCOS(=O)(=O)[O-].[Na+] [SDS, Sodium dodecyl sulfate]
- effect on fertility rate, in words (21-day exposure): significant decrease; also recorded: significant reduction
- effect on male hepatic VTG, in words (21-day exposure): no VTG induction
- GSI Female [1]: 10.9%
- HSI Female [1]: 4.8%
- Length Female [1]: 35.6 mm
- Weight Female [1]: 547 mg
- GSI Female [2]: 10.8%
- HSI Female [2]: 4.8%
- Length Female [2]: 36.6 mm
- Weight Female [2]: 573 mg
- GSI Female [3]: 11.0%
- HSI Female [3]: 4.9%
- Length Female [3]: 36.1 mm
- Weight Female [3]: 573 mg
- GSI Male [4]: 0.88%
- HSI Male [4]: 2.3%
- Length Male [4]: 36.7 mm
- Weight Male [4]: 544 mg
- GSI Male (male, measured conc. 2.46 mg/L): 0.91%
- HSI Male (male, measured conc. 2.46 mg/L): 2.0%
- Length Male (male, measured conc. 2.46 mg/L): 36.7 mm
- Weight Male (male, measured conc. 2.46 mg/L): 519 mg
- GSI Male (male, measured conc. 10.0 mg/L): 1.17%
- HSI Male (male, measured conc. 10.0 mg/L): 2.2%
- Length Male (male, measured conc. 10.0 mg/L): 35.6 mm
- Weight Male (male, measured conc. 10.0 mg/L): 493 mg
- Fertility rate (%) (measured conc. 0.748 mg/L): 95%
- Mortality (%) Female (measured conc. 0.748 mg/L): 0%
- Mortality (%) Male (measured conc. 0.748 mg/L): 0%
- Number of fertilized eggs (measured conc. 0.748 mg/L): 27
- Number of total eggs (measured conc. 0.748 mg/L): 29 ± 3.9 /female/day
- SSC Female (measured conc. 0.748 mg/L): 0 ± 0
- SSC Male (measured conc. 0.748 mg/L): 107 ± 8.7
- VTG (ng/mg of liver) Female (measured conc. 0.748 mg/L): 3,780 ± 305 ng/mg of liver
- VTG (ng/mg of liver) Male (measured conc. 0.748 mg/L): 3.0 ± 4.2 ng/mg of liver
- Fertility rate (%) (measured conc. 2.46 mg/L): 93%
- Mortality (%) Female (measured conc. 2.46 mg/L): 0%
- Mortality (%) Male (measured conc. 2.46 mg/L): 0%
- Number of fertilized eggs (measured conc. 2.46 mg/L): 27
- Number of total eggs (measured conc. 2.46 mg/L): 30 ± 2.7 /female/day
- SSC Female (measured conc. 2.46 mg/L): 0 ± 0
- SSC Male (measured conc. 2.46 mg/L): 112 ± 11
- VTG (ng/mg of liver) Female (measured conc. 2.46 mg/L): 4,930 ± 189 ng/mg of liver
- VTG (ng/mg of liver) Male (measured conc. 2.46 mg/L): 6.6 ± 11 ng/mg of liver
- Fertility rate (%) (measured conc. 10.0 mg/L): 85%
- Mortality (%) Female (measured conc. 10.0 mg/L): 0%
- Mortality (%) Male (measured conc. 10.0 mg/L): 0%
- Number of fertilized eggs (measured conc. 10.0 mg/L): 25
- Number of total eggs (measured conc. 10.0 mg/L): 30 ± 1.8 /female/day
- SSC Female (measured conc. 10.0 mg/L): 0 ± 0
- SSC Male (measured conc. 10.0 mg/L): 110 ± 3.5
- VTG (ng/mg of liver) Female (measured conc. 10.0 mg/L): 4,520 ± 906 ng/mg of liver
- VTG (ng/mg of liver) Male (measured conc. 10.0 mg/L): 1.0 ± 0.5 ng/mg of liver
- effect on fecundity (number of total eggs), in words (21-day exposure): no significant effect

SMILES: C[C@]12C=CC3=C4CCC(=O)C=C4CC[C@H]3[C@@H]1CC[C@@H]2O [TRB, 17β‐Trenbolone]
- LOEC on female SSC (papillary process formation on anal fin) (21-day exposure, measured conc.): 26.8 ng/L
- Fertility rate (%) (measured conc. 8.03 ng/L): 95%
- Mortality (%) Female (measured conc. 8.03 ng/L): 0%
- Mortality (%) Male (measured conc. 8.03 ng/L): 0%
- Number of fertilized eggs (measured conc. 8.03 ng/L): 26
- Number of total eggs (measured conc. 8.03 ng/L): 27 ± 3.5 /female/day
- SSC Female (measured conc. 8.03 ng/L): 0 ± 0
- SSC Male (measured conc. 8.03 ng/L): 86 ± 3.9
- VTG (ng/mg of liver) Female (measured conc. 8.03 ng/L): 736 ± 147 ng/mg of liver
- VTG (ng/mg of liver) Male (measured conc. 8.03 ng/L): 3.7 ± 3.2 ng/mg of liver
- GSI Female (measured conc. 8.03 ng/L): 9.7%
- GSI Male (measured conc. 8.03 ng/L): 1.04%
- HSI Female (measured conc. 8.03 ng/L): 5.4%
- HSI Male (measured conc. 8.03 ng/L): 1.8%
- Length Female (measured conc. 8.03 ng/L): 36.4 mm
- Length Male (measured conc. 8.03 ng/L): 36.7 mm
- Weight Female (measured conc. 8.03 ng/L): 573 mg
- Weight Male (measured conc. 8.03 ng/L): 502 mg
- Fertility rate (%) (measured conc. 26.8 ng/L): 93%
- Mortality (%) Female (measured conc. 26.8 ng/L): 0%
- Mortality (%) Male (measured conc. 26.8 ng/L): 0%
- Number of fertilized eggs (measured conc. 26.8 ng/L): 22
- Number of total eggs (measured conc. 26.8 ng/L): 24 ± 2.6 /female/day
- SSC Female (measured conc. 26.8 ng/L): 6.6 ± 6.1
- SSC Male (measured conc. 26.8 ng/L): 101 ± 17
- VTG (ng/mg of liver) Female (measured conc. 26.8 ng/L): 696 ± 211 ng/mg of liver
- VTG (ng/mg of liver) Male (measured conc. 26.8 ng/L): 6.5 ± 3.8 ng/mg of liver
- GSI Female (measured conc. 26.8 ng/L): 11.3%
- GSI Male (measured conc. 26.8 ng/L): 1.06%
- HSI Female (measured conc. 26.8 ng/L): 5.5%
- HSI Male (measured conc. 26.8 ng/L): 2.1%
- Length Female (measured conc. 26.8 ng/L): 35.6 mm
- Length Male (measured conc. 26.8 ng/L): 37.3 mm
- Weight Female (measured conc. 26.8 ng/L): 515 mg
- Weight Male (measured conc. 26.8 ng/L): 500 mg
- Fertility rate (%) (measured conc. 84.6 ng/L): 90%
- Mortality (%) Female (measured conc. 84.6 ng/L): 0%
- Mortality (%) Male (measured conc. 84.6 ng/L): 0%
- Number of fertilized eggs (measured conc. 84.6 ng/L): 9.1
- Number of total eggs (measured conc. 84.6 ng/L): 10 ± 2.4 /female/day
- SSC Female (measured conc. 84.6 ng/L): 48 ± 6.7
- SSC Male (measured conc. 84.6 ng/L): 104 ± 8.1
- VTG (ng/mg of liver) Female (measured conc. 84.6 ng/L): 658 ± 102 ng/mg of liver
- VTG (ng/mg of liver) Male (measured conc. 84.6 ng/L): 4.9 ± 4.3 ng/mg of liver
- GSI Female (measured conc. 84.6 ng/L): 16.1%
- GSI Male (measured conc. 84.6 ng/L): 1.11%
- HSI Female (measured conc. 84.6 ng/L): 3.7%
- HSI Male (measured conc. 84.6 ng/L): 2.1%
- Length Female (measured conc. 84.6 ng/L): 36.1 mm
- Length Male (measured conc. 84.6 ng/L): 37.7 mm
- Weight Female (measured conc. 84.6 ng/L): 625 mg
- Weight Male (measured conc. 84.6 ng/L): 524 mg
- Fertility rate (%) (measured conc. 291 ng/L): 74%
- Mortality (%) Female (measured conc. 291 ng/L): 0%
- Mortality (%) Male (measured conc. 291 ng/L): 0%
- Number of fertilized eggs (measured conc. 291 ng/L): 0.9
- Number of total eggs (measured conc. 291 ng/L): 1.2 ± 0.5 /female/day
- SSC Female (measured conc. 291 ng/L): 76 ± 3.9
- SSC Male (measured conc. 291 ng/L): 103 ± 8.4
- VTG (ng/mg of liver) Female (measured conc. 291 ng/L): 641 ± 200 ng/mg of liver
- VTG (ng/mg of liver) Male (measured conc. 291 ng/L): 4.5 ± 2.1 ng/mg of liver
- GSI Female (measured conc. 291 ng/L): 18.8%
- GSI Male (measured conc. 291 ng/L): 1.10%
- HSI Female (measured conc. 291 ng/L): 3.4%
- HSI Male (measured conc. 291 ng/L): 1.8%
- Length Female (measured conc. 291 ng/L): 37.3 mm
- Length Male (measured conc. 291 ng/L): 37.0 mm
- Weight Female (measured conc. 291 ng/L): 691 mg
- Weight Male (measured conc. 291 ng/L): 504 mg
- effect on fecundity (number of total eggs), in words (21-day exposure): significantly reduced
